“Also recorded” adds a separate entry of the source.
Legend:
Huh7 D12 = experiment: Antiproliferative assay, Huh7 D12; type: cell-based, human
Method: (§1) The potential antiproliferative activity of these novel 3-(N-phenylmethyliden)amino-4-imino-3,5-dihydro-4H-chromeno[2,3-d]pyrimidine 10(a-i) and 10-(N-phenylmethyliden)amino-11-imino-11H-naphto[1′,2′:5,6]pyrano[2,3-d]pyrimidine 10(j-l) was evaluated in a panel of eight tumoral cell lines and in diploid skin fibroblasts used as normal cell lines for control. For these antitumor assays, chosen cell lines represent diverse types of human cancer, which are, respectively, human hepatocellular carcinoma (Huh7 D12), human colon adenocarcinoma (Caco2), human breast adenocarcinoma (MDA-MB231), MDA-MB468 for human breast carcinoma which correspond to the Triple Negative Breast Cancer (TNBC), human colon carcinoma (HCT116), PC3 as cell line initiated from bone metastasis of grade IV prostatic adenocarcinoma from a person, MCF7 as breast cancer line isolated from a person and PANC1, as human pancreatic cancer cell line. The potential antiproliferative activity was preliminarily evaluated in vitro at a 25 μM single dose.
(§2) The IC50 was calculated from the full dose-response curve and used as a parameter for the antiproliferative activity of the new compounds.
(§3) Skin diploid fibroblastic cells were provided by BIOPREDIC International Company (Rennes, France). Huh-7D12 (Ref ECACC: 01042712), Caco2 (Ref ECACC: 86010202), MDA-MB-231 (Ref ECACC: 92020424), MDA-MB-468, HCT-116 (Ref ECACC: 91091005), PC3 (Ref ECACC: 90112714), and MCF7 cell lines were obtained from the ECACC collection. PANC1 cell lines, a generous gift of LBAI Inserm 1227 (Brest, France). Cells were grown according to ECACC recommendations in DMEM for Huh-D12, MDA-MB-231, MDA-MB-468 and fibroblast, in EMEM for Caco2, in McCoy’s for HCT-116 and RPMI for PC3 at 37 °C and 5% CO2. All culture media with 10% of FBS, 1% of penicillin-streptomycin and 2 mM glutamine.
(§4) Chemicals were solubilized in DMSO at a concentration of 10 mM (stock solution) and diluted in a culture medium to the desired final concentrations. […] The toxicity test of the chemicals on these cells was as follows: 2 × 10^3 cells for HCT-116 cells or 4 × 10^3 for the other cells were seeded in 96-multi-well plates in triplicate and left for 24 h for attachment, spreading and growing. Then, cells were exposed for 48 h to increasing concentrations of chemicals, ranging from 0.1 μM to 25 μM, in a final volume of 120 μL of culture medium. After 48 h of treatment, cells were washed in PBS and fixed in a cooled 90% ethanol/5% acetic acid solution for 20 min. The nuclei were stained with Hoechst 3342 (B2261 Merck Sigma-Aldrich) and counted. Image acquisition and analysis were performed using automated imaging analysis with a Cellomics Arrayscan VTI/HCS Reader (Thermo/Scientific, Waltham, MA, USA). The survival percentages were calculated as the percentage of cell number after chemical treatment over cell number after DMSO treatment. The IC50 was graphically determined.

MDA MB468 = experiment: Antiproliferative assay, MDA MB468; type: cell-based, human
Method: as §1, §2, §3, §4

MDA MB231 = experiment: Antiproliferative assay, MDA MB231; type: cell-based, human
Method: as §1, §2, §3, §4

PC3 = experiment: Antiproliferative assay, PC3; type: cell-based, human
Method: as §1, §2, §3, §4

[1] = system: zebrafish Danio rerio embryos; experiment: Zebrafish embryo toxicity assay (Zebratox, FET)
Method: Fertilized eggs at 24–48 h post-fertilization (hpf) were selected and transferred to a 96-well plate (1 embryo/well). […] DMSO (0.6%) was used as vehicle control for the test compounds. The exposure duration continued up to 72 hpf because it is the endpoint of embryonic development [41]. The dead embryos were eliminated, and the fertilized eggs were imaged at 0, 24, 48 and 72 hpf.
Eggs were collected 2 h post-fertilization (hpf) and kept in glass Petri dishes containing water for subsequent examination under a binocular microscope to confirm fertilization. […] Chemical treatments were performed by adding DMSO alone (negative control), or test molecule. These experiments were performed in four technical replicates.
The experiments were performed using a Zeiss inverted fluorescent microscope (Observer Z1). The zebrafish toxicological test (Zebratox) was realized as follows: the 24 h post-fertilization embryos were arrayed by hand with one embryo per well in black-walled 96-well microplates for fluorescence assays (Perkin Elmer, Waltham, MA, USA). The embryos were treated before hatching from 0 to 72 h post-fertilization. The 20 mM DMSO stock chemicals were diluted in fish water and added to the wells at final concentrations from 0.0 2µM to 5 μM. The negative control (0.25% DMSO) was added to each replicate plate. The experiments were realized in triplicate in three independent plates. […] The zebrafish fertilized eggs were provided by the ImPACcell-Biosit Zebrafish facilities (Rennes, France).

[2] = 48 and 72 hpf treatment, up to 5 μM

COc1cccc2c1Oc1ncn(/N=C/c3ccccc3O)c(=N)c1C2 [10h, (3E) 3-N-(2-Hydroxyphenylmethylidene)amino-4-imino-9-methoxy-3,5-dihydro-4H-chromeno[2,3-d]pyrimidine] was tested, and the IC50 (Huh7 D12; Homo sapiens, Huh-7D12, 48 h incubation, average of three assays, standard error ± 0.5 μM) was 230 nM, the “Selectivity Index (SI) Huh7 D12” value (Huh7 D12; SI = IC50 fibroblasts/IC50 on Huh7 D12) was greater than 108.7 and the IC50 (MDA MB468; Homo sapiens, MDA-MB-468, 48 h incubation, average of three assays, standard error ± 0.5 μM) was 240 nM. For the same compound, the “Selectivity Index (SI) MDA MB468” value (MDA MB468; SI = IC50 fibroblasts/IC50 on MDA MB468) was greater than 104.2, the IC50 (MDA MB231; Homo sapiens, MDA-MB-231, 48 h incubation, average of three assays, standard error ± 0.5 μM) was 300 nM and the “Selectivity Index (SI) MDA MB231” value (MDA MB231; SI = IC50 fibroblasts/IC50 on MDA MB231) was greater than 83.3. For the same compound, the IC50 (PC3; Homo sapiens, PC-3, 48 h incubation, average of three assays, standard error ± 0.5 μM) was 240 nM, the “Selectivity Index (SI) PC3” value (PC3; SI = IC50 fibroblasts/IC50 on PC3) was greater than 104.2 and the “hatching of the embryos” value ([1]; 5 μM dose at 72 hpf) was “complete hatching”. For the same compound, the “toxic effect on zebrafish embryos” value ([1]; 5 μM dose at 72 hpf) was “no toxic effect; also recorded: without toxic effect”, the “hatching of the embryos” value [1, 2] was “complete hatching” and the “toxic effect on zebrafish embryos” value [1, 2] was “no toxic effect”.
